Assays:
CXCR4 [1] = target: T1, CXCR4 (Homo sapiens, UniProt P61073); test: FLIPR Tetra calcium mobilization assay; assay type: cell-based; conditions: Human CD4+ T-Cells; CXCL12 added; FLIPR Calcium 4 assay kit
Experimental: FLIPR Tetra Calcium Mobilization Assay The FLIPR Tetra calcium mobilization assay was performed by HD Bioscience. Briefly, The Molecular Devices, Fluorescent Imaging Plate Reader (FLIPR) Tetra was used in this assay. Excitation was achieved through unique placement of LED's within the instrument and emission captured by a CCD camera (EMCCD camera for FI and ICCD camera for luminescence). The homogeneous FLIPR Calcium 4 assay kit from Molecular Devices was used as the fluorescence reagent. Compounds were solubilized in 100% dimethyl sulfoxide (DMSO) to a concentration of 30 mM. A 10-point, 4-fold, intermediate dilution series was created in 100% DMSO with a top concentration of 4 mM and a bottom concentration of 0.01 μM. A near assay ready, direct dilution plate ([…]) was prepared from this compound dilution plate by transferring 1 μL of each dilution of compound in 100% DMSO to a Greiner #781201 plate. In addition, each […] plate also contained positive and negative control wells to define the upper and lower limits for the assay signal. The final assay concentration range of compound was 10 μM to 0.035 nM in 0.5% DMSO. Human CD^4+ T-Cells were isolated from human whole blood and subsequently activated and expanded using a CD3/CD28 expansion kit (Life Technologies). The cells were frozen in ThermoFisher-formulated Recovery Cell Culture Freezing Medium containing 10% Dimethyl sulfoxide (DMSO) and 10% Fetal Bovine Serum (FBS) (ThermoFisher Catalog No. 10100147). When used, cells were resuspended using room temperature 1× HBSS/20 mM HEPES/0.005% P-104 assay buffer, adjusted the volume of the suspension to achieve a cell concentration of 2.5×10^6 cells/mL. 2× Calcium 4 dye (20 μL/well) were added and the mixture were centrifuged briefly ( 10 s) and stopped when it reached 1000 rpm. The plates were allowed to equilibrate before compounds and CXCL12 were added to the plates. The raw data were analyzed using Abase. The percent (%) effect at each concentration of compound was calculated by Abase and was based on and relative to the amount of calcium produced in the positive and negative control wells contained within each assay plate. The concentrations and % effect values for tested compounds were plotted by Abase and the concentration of compound required for 50% effect (IC50) was determined with a four-parameter logistic dose response equation. FIGS. 3 and 4 summarize the results of Compounds A78 and A83 in the calcium mobilization assay.

CXCR4 [2] = target: T1, CXCR4; test: HPB-ALL CXCR4 competitive binding assay (12G5 binding assay); parameters: HPB-ALL cells were maintained in RPMI-1640 (Gibico) supplemented with 10% FBS (Hyclone); endogenous in cells; host or cells: HPB-ALL cells; conditions: HPB-ALL cells; competition with APC-conjugated anti-human CXCR4 clone 12G5 at its EC80; 4° C. for 3 h; FACS
Experimental: HPB-ALL CXCR4 Competitive Binding Assay
HPB-ALL cells were maintained in RPMI-1640 (Gibico) supplemented with 10% FBS (Hyclone). APC-conjugated anti-human CXCR4 was from Sungene. EC80 was first determined for 12G5 binding to CXCR4. Then the compounds for testing were added into 96-well plates serially diluted at a ratio of 1:3. Cells were washed once with ice-cold assay buffer (DPBS+2% HI-FBS) and then re-suspended in the same buffer at a final concentration of 1×10^6/mL. Cell suspension was then added into the wells and with the addition of APC-conjugated anti-human CXCR4 clone 12G5 at its EC80 determined. The mix of cell, compounds and APC-conjugated anti-human CXCR4 were incubated at 4° C. for 3 h before addition of 100 μL of 4% PFA. Cells were then washed once and resuspended in assay buffer and examined by FACS. The percent (%) effect at each concentration of compound was calculated and relative to the amount of calcium produced in the positive and negative control wells contained within each assay plate. The concentrations and % effect values for tested compounds were plotted and the concentration of compound required for 50% effect (IC50) was determined. Tables 2 summarize results of the CXCR4 competitive binding assay for selected compounds disclosed in the present disclosure. FIGS. 1-2 depict the IC50 curves of compounds A42 and A43.

T1 sequence (P61073 whole entry): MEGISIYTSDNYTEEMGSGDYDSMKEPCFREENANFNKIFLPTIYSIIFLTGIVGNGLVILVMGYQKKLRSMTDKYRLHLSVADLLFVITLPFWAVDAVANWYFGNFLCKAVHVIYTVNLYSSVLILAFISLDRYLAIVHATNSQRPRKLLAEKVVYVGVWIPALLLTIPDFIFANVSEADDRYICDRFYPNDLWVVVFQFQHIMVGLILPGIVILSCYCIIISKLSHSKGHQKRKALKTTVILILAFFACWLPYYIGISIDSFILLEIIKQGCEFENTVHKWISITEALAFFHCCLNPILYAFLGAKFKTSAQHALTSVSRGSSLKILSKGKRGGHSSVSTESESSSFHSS

With `CN1CCN(c2cc(CN(C)C3CCCc4cccnc43)ncn2)CC1` (stereo not drawn) [Compound A1, N-methyl-N-((6-(4-methylpiperazin-1-yl)pyrimidin-4-yl)methyl)-5,6,7,8-tetrahydroquinolin-8-amine] as the molecule, how does the IC50 (CXCR4 [1]) read?
The IC50 was 4.5 nM.

And the IC50 (CXCR4 [2])?
The IC50 was 45 nM.

`CN1CCCN(c2cc(CN(C)C3CCCc4cccnc43)ncn2)CC1` (stereo not drawn) [Compound A22] was tested. Which IC50 (CXCR4 [1]) did it give?
Its IC50 is 3.4 nM.

And the IC50 (CXCR4 [2])?
Its IC50 is 32 nM.

`Cc1nc(CN(C)[C@H]2CCCc3cccnc32)cc(N2CCN(C)CC2)n1` [Compound A42] was tested. Which IC50 (CXCR4 [1]) did it give?
The IC50 was 0.021 nM.

And the IC50 (CXCR4 [2])?
Its IC50 is 9.8 nM.

Which results are given for `Cc1nc(CN(C)[C@H]2CCCc3cccnc32)c(C)c(N2CCN(C)CC2)n1` [Compound A61]?
IC50 (CXCR4 [1]): 0.024 nM; IC50 (CXCR4 [2]): 8.8 nM

What does the source list for `Cc1nc(CN(C)[C@@H](C)c2ccccn2)cc(N2CCN(C)CC2)n1` [Compound A75, (S)-N-methyl-N-((2-methyl-6-(4-methylpiperazin-1-yl)pyrimidin-4-yl)methyl)-1-(pyridin-2-yl)ethan-1-amine]?
IC50 (CXCR4 [1]): 0.09 nM; IC50 (CXCR4 [2]): 15 nM

For `Cc1nc(CN(C)C2=C(F)CCc3cccnc32)cc(N2CCN(C)CC2)n1` [Compound D1, 7-fluoro-N-methyl-N-((2-methyl-6-(4-methylpiperazin-1-yl)pyrimidin-4-yl)methyl)-5,6-dihydroquinolin-8-amine], which IC50 (CXCR4 [1]) is on record?
The IC50 was 1.2 nM.

And the IC50 (CXCR4 [2])?
Its IC50 is 18 nM.

Which results are given for `Cc1nc(CN(C)c2cccc3cccnc23)cc(N2CCN(C)CC2)n1` [Compound D2, N-methyl-N-((2-methyl-6-(4-methylpiperazin-1-yl)pyrimidin-4-yl)methyl)quinolin-8-amine]?
IC50 (CXCR4 [1]): 0.24 nM; IC50 (CXCR4 [2]): 65 nM

Which results are given for `Cc1nc(CN(C)c2cccc3cccnc23)cc(N2CCN(C)[C@H](C)C2)n1` [Compound D4]?
IC50 (CXCR4 [1]): 0.14 nM; IC50 (CXCR4 [2]): 55 nM

With `Cc1nc(CN(C)c2c(C)ccc3cccnc23)cc(N2CCN(C)CC2)n1` [Compound D14] as the molecule, how does the IC50 (CXCR4 [1]) read?
Its IC50 is 0.3 nM.

And the IC50 (CXCR4 [2])?
The IC50 was 57 nM.

What does the source list for `Cc1nc(CN(C)c2cc(F)c(F)c3cccnc23)cc(N2CCN(C)CC2)n1` [Compound D20]?
IC50 (CXCR4 [1]): 3.1 nM; IC50 (CXCR4 [2]): 675 nM

Which results are given for `CCN(Cc1cc(N2CCN(C)CC2)nc(C)n1)c1cccc2cccnc12` [Compound D25]?
IC50 (CXCR4 [1]): 16 nM; IC50 (CXCR4 [2]): 151 nM

How did the IC50 (CXCR4 [1]) turn out when `Cc1nc(CN(CCCCN)c2cccc3cccnc23)cc(N2CCN(C)CC2)n1` [Compound D28] was run?
The IC50 was 0.21 nM.

What about the IC50 (CXCR4 [2]) of the same molecule?
Its IC50 is 338 nM.

Which results are given for `Cc1nc(CN(CCCC(=O)O)c2cccc3cccnc23)cc(N2CCN(C)CC2)n1` [Compound D30, 4-(((2-methyl-6-(4-methylpiperazin-1-yl)pyrimidin-4-yl)methyl)(quinolin-8-yl)amino)butanoic acid]?
IC50 (CXCR4 [1]): 9.3 nM; IC50 (CXCR4 [2]): 3820 nM

With `Cc1nc(CN(C)c2cccc3cccnc23)c(C#N)c(N2CCN(C)CC2)n1` [Compound D36] as the molecule, how does the IC50 (CXCR4 [1]) read?
Its IC50 is 3.6 nM.

What about the IC50 (CXCR4 [2]) of the same molecule?
Its IC50 is 1170 nM.

For `Cc1nc(CN(C)c2ccc(S(C)(=O)=O)c3cccnc23)cc(N2CCN(C)CC2)n1` [Compound D43, N-methyl-N-((2-methyl-6-(4-methylpiperazin-1-yl)pyrimidin-4-yl)methyl)-5-(methylsulfonyl)quinolin-8-amine], which IC50 (CXCR4 [1]) is on record?
Its IC50 is 3380 nM.

How did the IC50 (CXCR4 [1]) turn out when `Cc1nc(CN(C)c2cc(C(F)(F)F)cc3cccnc23)cc(N2CCN(C)CC2)n1` [Compound D44] was run?
Its IC50 is 104 nM.

For `Cc1nc(CN(C)c2cc(Br)cc3cccnc23)cc(N2CCN(C)CC2)n1` [Compound D45], which IC50 (CXCR4 [1]) is on record?
The IC50 was 3 nM.

With `Cc1nc(CN(C)c2cc(C#N)cc3cccnc23)cc(N2CCN(C)CC2)n1` [Compound D46] as the molecule, how does the IC50 (CXCR4 [1]) read?
Its IC50 is 53 nM.

With `Cc1nc(CN(C)c2cc(S(C)(=O)=O)cc3cccnc23)cc(N2CCN(C)CC2)n1` [Compound D47] as the molecule, how does the IC50 (CXCR4 [1]) read?
Its IC50 is 13 nM.

With `Cc1nc(CN(C)c2c(C(F)(F)F)ccc3cccnc23)cc(N2CCN(C)CC2)n1` [Compound D48] as the molecule, how does the IC50 (CXCR4 [1]) read?
Its IC50 is 928 nM.

How did the IC50 (CXCR4 [1]) turn out when `Cc1nc(CN(C)c2c(Br)ccc3cccnc23)cc(N2CCN(C)CC2)n1` [Compound D49] was run?
The IC50 was 4.5 nM.

`Cc1nc(CN(C)c2c(C#N)ccc3cccnc23)cc(N2CCN(C)CC2)n1` [Compound D50, 8-(methyl((2-methyl-6-(4-methylpiperazin-1-yl)pyrimidin-4-yl)methyl)amino)quinoline-7-carbonitrile] was tested. Which IC50 (CXCR4 [1]) did it give?
Its IC50 is 14 nM.

How did the IC50 (CXCR4 [1]) turn out when `Cc1nc(CN(C)c2c(S(C)(=O)=O)ccc3cccnc23)cc(N2CCN(C)CC2)n1` [Compound D51] was run?
The IC50 was 2090 nM.

`Cc1nc(CN(C)c2cc(F)cc3cccnc23)cc(N2CCN(C)CC2CO)n1` (stereo not drawn) [Compound D52] was tested. Which IC50 (CXCR4 [1]) did it give?
Its IC50 is 4.5 nM.

With `Cc1nc(CN(C)c2cc(F)cc3cccnc23)cc(N2CCN(C)C(CO)C2)n1` (stereo not drawn) [Compound D53] as the molecule, how does the IC50 (CXCR4 [1]) read?
Its IC50 is 6.7 nM.

For `CN1CCN(c2cc(CN(C)c3cccc4cccnc34)nc(CO)n2)CC1` [Compound D54], which IC50 (CXCR4 [1]) is on record?
The IC50 was 7.2 nM.

For `Cc1nc(CN(C)c2cc(CO)cc3cccnc23)cc(N2CCN(C)CC2)n1` [Compound D55, (8-(methyl((2-methyl-6-(4-methylpiperazin-1-yl)pyrimidin-4-yl)methyl)amino)quinolin-6-yl)methanol], which IC50 (CXCR4 [1]) is on record?
Its IC50 is 39 nM.

With `Cc1nc(CN(C)c2c(CO)ccc3cccnc23)cc(N2CCN(C)CC2)n1` [Compound D56] as the molecule, how does the IC50 (CXCR4 [1]) read?
The IC50 was 5.5 nM.

How did the IC50 (CXCR4 [1]) turn out when `Cc1nc(CN(C)c2ccc(NS(C)(=O)=O)c3cccnc23)cc(N2CCN(C)CC2)n1` [Compound D57, N-(8-(methyl((2-methyl-6-(4-methylpiperazin-1-yl)pyrimidin-4-yl)methyl)amino)quinolin-5-yl)methanesulfonamide] was run?
The IC50 was 2880 nM.

Which IC50 (CXCR4 [1]) does the source give for `Cc1nc(CN(C)c2cc(NS(C)(=O)=O)cc3cccnc23)cc(N2CCN(C)CC2)n1` [Compound D58, N-(8-(methyl((2-methyl-6-(4-methylpiperazin-1-yl)pyrimidin-4-yl)methyl)amino)quinolin-6-yl)methane sulfonamide] here?
The IC50 was 55 nM.

With `Cc1nc(CN(C)c2c(NS(C)(=O)=O)ccc3cccnc23)cc(N2CCN(C)CC2)n1` [Compound D59] as the molecule, how does the IC50 (CXCR4 [1]) read?
Its IC50 is 450 nM.

Reference: patent publication US11396501B2, “Heteroaryl compounds as CXCR4 inhibitors, composition and method using the same” (CGENETECH (SUZHOU, CHINA) CO., LTD., priority 2017, dated 2022)
